Patent US20210189342A1, “COMPOSITIONS AND METHODS FOR MODULATING MONOCYTE AND MACROPHAGE INFLAMMATORY PHENOTYPES AND IMMUNOTHERAPY USES THEREOF” (Verseau Therapeutics, Inc., priority 2018, published 2021)

test system: SIGLEC7; assay: siRNA dose response, SIGLEC7 mRNA knockdown, Dual-Glo Luciferase Assay; type: cell-based, human; conditions: Hepa1-6 + reporter plasmid, 24 hr
Procedure: (§1) Dose response curves for siRNAs were generated in vitro using a variety of cell lines according to Table 4.
(§2) Briefly, cells were seeded in 96-well plates and reverse transfected with siRNA, Lipofectamine® 2000 (0.5 uL/well; ThermoFisher), and, in some cases, a reporter plasmid (50 ng/well). The reporter plasmid (psiCHECK™-2, Promega) encoded both firefly luciferase and the gene of interest fused to renilla luciferase; silencing of the gene of interest results in proportional silencing of renilla luciferase but leaves firefly luciferase unaffected as an internal control.
(§3) After 24 hr incubation at 37° C., mRNA knockdown was measured using an endpoint assay. For targets without a reporter plasmid, a branched DNA (bDNA) assay was performed according to the manufacturer's instructions (QuantiGene® Singleplex Gene Expression Assay, ThermoFisher) to measure both the target gene and GAPDH (housekeeping gene) mRNA. Data are plotted as siRNA concentration (nM) vs. remaining mRNA (ratio of target gene to GAPDH, normalized to mock siRNA-transfected cells). For targets with a reporter plasmid, a Dual-Glo® Luciferase Assay was performed according to the manufacturer's instructions (Promega) to measure firefly and renilla luciferase expression. Data are plotted as siRNA concentration (nM) vs. remaining mRNA (ratio of renilla to firefly luminescence, normalized to mock siRNA-transfected cells).
(§4) For all dose response curves, a 4-parameter logistic model was applied to determine the IC50 of each siRNA sequence (Table 5 and FIG. 2). Data shown in Table 5 and FIG. 2 represent the mean of quadruplicates, +/−standard deviation.

Substance | IC50 [nM]
XD-10600: siRNA targeting SIGLEC7 (sense 5'-agAGuAAccGGAAgCAuusa-3'; antisense 5'-dTAAUCCUUCCGGUUACUCUusu-3'; RNA with 2'-O-methyl and phosphorothioate modifications, case key not given here, as printed in the source, key not given here) | 0.155
XD-10601: siRNA targeting SIGLEC7 (sense 5'-gaGuAACcGGAAGgAuuasa-3'; antisense 5'-dTUAAUCCUUCCGGUuACUCusu-3'; RNA with 2'-O-methyl and phosphorothioate modifications, case key not given here, as printed in the source, key not given here) | 0.127
XD-10602: siRNA targeting SIGLEC7 (sense 5'-guAAccGGAAGGAuuAcusa-3'; antisense 5'-dTAGuAAUCCUUCCGGUuACusu-3'; RNA with 2'-O-methyl and phosphorothioate modifications, case key not given here, as printed in the source, key not given here) | 3.53
XD-10603: siRNA targeting SIGLEC7 (sense 5'-cgGAAGGAuuAcucGcugsa-3'; antisense 5'-dTCAGCGAGuAAUCCUUCCGusu-3'; RNA with 2'-O-methyl and phosphorothioate modifications, case key not given here, as printed in the source, key not given here) | 0.029
XD-10604: siRNA targeting SIGLEC7 (sense 5'-ggAAGGAuuAcucgcuGasa-3'; antisense 5'-dTUcAGCGAGuAAUCCUUCCusu-3'; RNA with 2'-O-methyl and phosphorothioate modifications, case key not given here, as printed in the source, key not given here) | 0.032
XD-10605: siRNA targeting SIGLEC7 (sense 5'-ggAuuACucGcuGacGAusa-3'; antisense 5'-dTAUCGUcAGCGAGUAAUCCusu-3'; RNA with 2'-O-methyl and phosphorothioate modifications, case key not given here, as printed in the source, key not given here) | 0.022
XD-10606: siRNA targeting SIGLEC7 (sense 5'-ccGuGcAAGAGGGcAuGusa-3'; antisense 5'-dTAcAUGCCCUCUUGcACGGusu-3'; RNA with 2'-O-methyl and phosphorothioate modifications, case key not given here, as printed in the source, key not given here) | 0.045
XD-10607: siRNA targeting SIGLEC7 (sense 5'-cgGGcAGGGAAuGauAuasa-3'; antisense 5'-dTUAuAUcAUUCCCUGCCCGusu-3'; as printed in the source, key not given here) | 0.039
XD-10608: siRNA targeting SIGLEC7 (sense 5'-gcAGGGAAuGAuAuAAGcsa-3'; antisense 5'-dTGCUuAuAUcAUUCCCUGCusu-3'; as printed in the source, key not given here) | 0.056
XD-10609: siRNA targeting SIGLEC7 (sense 5'-ggAAuGAuAuAAGcuGGasa-3'; antisense 5'-dTUCcAGCUuAuAUCAUUCCusu-3'; as printed in the source, key not given here) | 0.059

test system: CD48; assay: siRNA dose response, CD48 mRNA knockdown, Dual-Glo Luciferase Assay; type: cell-based, human; conditions: Hepa1-6 + reporter plasmid, 24 hr
Procedure: as §1, §2, §3, §4

Substance | IC50 [nM]
XD-09720: siRNA targeting CD48 (sense 5'-cucuGGAAuuGcuacuGcudTsdT-3'; antisense 5'-AGcAGuAGcAAUUCcAGAGdTsdT-3'; as printed in the source, key not given here) | 0.012
XD-09721: siRNA targeting CD48 (sense 5'-cuAAccuGGuuuuauAcuudTsdT-3'; antisense 5'-AAGuAuAAAACcAGGUuAGdTsdT-3'; RNA with 2'-O-methyl and phosphorothioate modifications, case key not given here, as printed in the source, key not given here) | 0.009
XD-09722: siRNA targeting CD48 (sense 5'-cuuucGAccAGAAgAuuGudTsdT-3'; antisense 5'-AcAAUCUUCUGGUCGAAAGdTsdT-3'; RNA with 2'-O-methyl and phosphorothioate modifications, case key not given here, as printed in the source, key not given here) | 0.014
XD-09723: siRNA targeting CD48 (sense 5'-uccAGAAAAucuAaGuAcudTsdT-3'; antisense 5'-AGuACUuAGAUUUUCUGGAdTsdT-3'; as printed in the source, key not given here) | 0.03
XD-09724: siRNA targeting CD48 (sense 5'-gaAuccAAAuuuAaAGGcAdTsdT-3'; antisense 5'-UGCCUUuAAAUUUGGAUUCdTsdT-3'; as printed in the source, key not given here) | 0.055
XD-09725: siRNA targeting CD48 (sense 5'-cccAAGccuGucAucAAAAdTsdT-3'; antisense 5'-UUUUGAUGAcAGGCUUGGGdTsdT-3'; RNA with 2'-O-methyl and phosphorothioate modifications, case key not given here, as printed in the source, key not given here) | 0.022
XD-09726: siRNA targeting CD48 (sense 5'-acAAcuGuuAucugAAAcudTsdT-3'; antisense 5'-AGUUUcAGAuAAcAGUUGUdTsdT-3'; as printed in the source, key not given here) | 0.017
XD-09727: siRNA targeting CD48 (sense 5'-ccuGGcGAGucuGuAAAcudTsdT-3'; antisense 5'-AGUUuAcAGACUCGCcAGGdTsdT-3'; as printed in the source, key not given here) | 0.046
XD-09728: siRNA targeting CD48 (sense 5'-cuGGcGAGucuGuaAAcuAdTsdT-3'; antisense 5'-UagUUuAcAGACUCGCcAGdTsdT-3'; as printed in the source, key not given here) | 0.032
XD-09729: siRNA targeting CD48 (sense 5'-uguuAuAcuuGccaAGucAdTsdT-3'; antisense 5'-UGACUUGGcAAGuAuAAcAdTsdT-3'; as printed in the source, key not given here) | 0.015

test system: CD74; assay: siRNA dose response, CD74 mRNA knockdown, bDNA Assay; type: cell-based, human; conditions: THP-1, 24 hr
Procedure: as §1, §2, §3, §4

Substance | IC50 [nM]
XD-09223: siRNA targeting CD74 (sense 5'-ggAGcuGucGGGAaGAucAdTsdT-3'; antisense 5'-UGAUCUUCCCGAcAGCUCCdTsdT-3'; as printed in the source, key not given here) | 0.34
XD-09224: siRNA targeting CD74 (sense 5'-gcGcGAccuuAucuccAAcdTsdT-3'; antisense 5'-GUUGGAGAuAAGGUCGCGCdTsdT-3'; as printed in the source, key not given here) | 1.98
XD-09226: siRNA targeting CD74 (sense 5'-cuGGAcAAAcuGAcAGucAdTsdT-3'; antisense 5'-AGACUGUcAGUUUGUCcAGdTsdT-3'; RNA with 2'-O-methyl and phosphorothioate modifications, case key not given here, as printed in the source, key not given here) | 0.143
